{"source": "paper PMC3523387", "about": "(Planta medica, 2012)", "target": "T1, protein tyrosine phosphatase 1B (PTP1B) (Homo sapiens, UniProt P18031)", "T1 sequence (P18031 1-435)": "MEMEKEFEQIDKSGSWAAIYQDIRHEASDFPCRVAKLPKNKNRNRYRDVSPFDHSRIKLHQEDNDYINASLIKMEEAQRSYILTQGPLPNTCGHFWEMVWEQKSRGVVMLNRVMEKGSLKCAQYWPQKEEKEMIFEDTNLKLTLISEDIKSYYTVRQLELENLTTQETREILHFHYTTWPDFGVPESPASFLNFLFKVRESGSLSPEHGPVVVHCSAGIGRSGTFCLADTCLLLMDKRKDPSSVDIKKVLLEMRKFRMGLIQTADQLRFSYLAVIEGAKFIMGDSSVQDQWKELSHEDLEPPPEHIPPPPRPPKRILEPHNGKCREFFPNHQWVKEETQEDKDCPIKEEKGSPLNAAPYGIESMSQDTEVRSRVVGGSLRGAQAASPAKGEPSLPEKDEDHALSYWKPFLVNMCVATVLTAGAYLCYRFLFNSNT", "experiment": "colorimetric pNPP hydrolysis assay with human recombinant PTP1B, dose-response", "assay_type": "biochemical"}
{"substance": "ratanhiaphenol III [compound 9]", "values": [{"measurement": "IC50", "value": 20.2, "unit": "µM"}]}
